Values after ≈ are worked out from the molar mass of the structure shown. Where two headings read alike, the source gives them in different places.
Experiments:
Type in all cases: cell-based
Cryptococcus neoformans = assay: MIC against C. neoformans (NCCLS broth dilution); settings: for MIC: Cryptococcus neoformans, read-out: Minimum inhibitory concentration, C. neoformans
Text: (§1) To determine the antifungal activity of these compounds we screened for their minimum inhibitory concentrations (MIC) against the major dermatophytes that cause onychomycosis, T. rubrum and T. mentagrophytes, and against the yeasts and molds C. albicans, C. neoformans and A. fumigatus to test for their broad spectrum activity. The antifungal agent ciclopirox, currently in use for the topical treatment of onychomycosis, was used as a reference.
(§2) All MIC testing against Trichophyton rubrum, Trichophyton mentagrophytes, Candida albicans, Cryptococcus neoformans and Aspergillus fumigatus were determined following the National Committee for Clinical Laboratory Standards (NCCLS) guidelines for antimicrobial testing of yeasts and filamentous fungi.^i,ii
(§3) Two-fold serial dilutions of the test compounds were prepared in 96-well plates. […] Pfaller M A, Chaturvedi V, Espinel-Ingroff A, Ghannoum M A, Gosey L L, Odds F C, Rex J H, Rinaldi M G, Sheehan D J, Walsh T J, Warnock D W. NCCLS publication M27-A2—Reference Method for Broth Dilution Antifungal Susceptibility Testing of Yeasts; Approved Standard—Second Edition. […] Pfaller M A, Chaturvedi V, Espinel-Ingroff A, Ghannoum M A, Gosey L L, Odds F C, Rex J H, Rinaldi M G, Sheehan D J, Walsh T J, Warnock D W. NCCLS publication M38-A—Reference Method for Broth Dilution Antifungal Susceptibility Testing of Filamentous Fungi; Approved Standard.

Candida albicans = assay: MIC against C. albicans (NCCLS broth dilution); settings: for MIC: Candida albicans, read-out: Minimum inhibitory concentration, C. albicans
Text: as §1, §2, §3

Trichophyton rubrum = assay: MIC against T. rubrum (NCCLS broth dilution); settings: for MIC: Trichophyton rubrum, read-out: Minimum inhibitory concentration, T. rubrum
Text: as §1, §2, §3

Aspergillus fumigatus = assay: MIC against A. fumigatus (NCCLS broth dilution); settings: for MIC: Aspergillus fumigatus, read-out: Minimum inhibitory concentration, A. fumigatus
Text: as §1, §2, §3

[1] = test system: Trichophyton mentagrophytes; assay: MIC against T. mentagrophytes (NCCLS broth dilution); settings: for MIC: Trichophyton mentagrophytes, read-out: Minimum inhibitory concentration, T. mentagrophytes
Text: as §1, §2, §3

[2] = Table 1, over 90% reduction of growth, 24-168 h at 35° C.

| Molecule | MIC (Cryptococcus neoformans; Table 3, 1-hydroxy series (19)) | MIC (Candida albicans; Table 3, 1-hydroxy series (19)) | MIC (Trichophyton rubrum; Table 3, 1-hydroxy series (19)) | MIC (Aspergillus fumigatus; Table 3, 1-hydroxy series (19)) | MIC ([1]; Table 3, 1-hydroxy series (19)) | Minimum inhibitory concentration, C. neoformans (Cryptococcus neoformans; Table 3, 1-hydroxy series (19)) | Minimum inhibitory concentration, C. albicans (Candida albicans; Table 3, 1-hydroxy series (19)) | Minimum inhibitory concentration, T. rubrum (Trichophyton rubrum; Table 3, 1-hydroxy series (19)) | Minimum inhibitory concentration, A. fumigatus (Aspergillus fumigatus; Table 3, 1-hydroxy series (19)) | Minimum inhibitory concentration, T. mentagrophytes ([1]; Table 3, 1-hydroxy series (19)) | also measured |
| --- | --- | --- | --- | --- | --- | --- | --- | --- | --- | --- | --- |
| 1,3-Dihydro-1-hydroxy-2,1-naphtho[2,1-d]oxaborole [19j] |  |  |  |  |  | 32 µg/mL | 32 µg/mL | 4 µg/mL | 32 µg/mL | 2 µg/mL |  |
| 1,3-Dihydro-1-hydroxy-5-trifluoromethoxy-benzoxaborole [19i] |  |  |  |  |  | >64 µg/mL | >64 µg/mL | 64 µg/mL | >64 µg/mL | 64 µg/mL |  |
| Clc1cccc(B2OCc3ccccc32)c1 [9c, 1-(3-Chlorophenyl)-1,3-dihydro-2,1-benzoxaborole] |  |  |  |  |  |  |  |  |  |  | MIC (Cryptococcus neoformans; Table 2, 1-phenyl series (9)): 4 µg/mL (≈ 17.5 µM); MIC (Candida albicans; Table 2, 1-phenyl series (9)): 8 µg/mL (≈ 35 µM); MIC (Trichophyton rubrum; Table 2, 1-phenyl series (9)): 16 µg/mL (≈ 70 µM); MIC (Aspergillus fumigatus; Table 2, 1-phenyl series (9)): 8 µg/mL (≈ 35 µM); MIC ([1]; Table 2, 1-phenyl series (9)): 8 µg/mL (≈ 35 µM) |
| Fc1cccc(B2OCc3ccccc32)c1 [9d, 1,3-Dihydro-1-(3-fluorophenyl)-2,1-benzoxaborole] |  |  |  |  |  |  |  |  |  |  | MIC (Cryptococcus neoformans; Table 2, 1-phenyl series (9)): 4 µg/mL (≈ 18.9 µM); MIC (Candida albicans; Table 2, 1-phenyl series (9)): 4 µg/mL (≈ 18.9 µM); MIC (Trichophyton rubrum; Table 2, 1-phenyl series (9)): 8 µg/mL (≈ 37.7 µM); MIC (Aspergillus fumigatus; Table 2, 1-phenyl series (9)): 8 µg/mL (≈ 37.7 µM); MIC ([1]; Table 2, 1-phenyl series (9)): 16 µg/mL (≈ 75.5 µM) |
| OB1OCc2ccccc21 [19a, 1,3-Dihydro-1-hydroxy-2,1-benzoxaborole] |  |  |  |  |  |  |  |  |  |  | MIC (Cryptococcus neoformans): 1 µg/mL (≈ 7.47 µM); MIC (Candida albicans): 2 µg/mL (≈ 14.9 µM); MIC (Trichophyton rubrum): 8 µg/mL (≈ 59.7 µM); MIC (Aspergillus fumigatus): 2 µg/mL (≈ 14.9 µM); MIC [1]: 4 µg/mL (≈ 29.9 µM) |
| OB1OCc2cc(F)ccc21 [19b, 1,3-Dihydro-5-fluoro-1-hydroxy-2,1-benzoxaborole] |  |  |  |  |  | 0.25 µg/mL (≈ 1.65 µM) | 0.5 µg/mL (≈ 3.29 µM) | 1 µg/mL (≈ 6.58 µM) | 0.25 µg/mL (≈ 1.65 µM) | 1 µg/mL (≈ 6.58 µM) | fold increase in activity against C. neoformans (Cryptococcus neoformans; 19a relative to 9a, 19b relative to 9b): 8 fold; MIC (Cryptococcus neoformans; [2]): 0.25 µg/mL (≈ 1.65 µM); MIC (Candida albicans; [2]): 0.5 µg/mL (≈ 3.29 µM); MIC (Trichophyton rubrum; [2]): 1 µg/mL (≈ 6.58 µM); MIC (Aspergillus fumigatus; [2]): 0.25 µg/mL (≈ 1.65 µM); MIC [1, 2]: 1 µg/mL (≈ 6.58 µM) |
| N#Cc1ccc2c(c1)COB2O [19f, 5-Cyano-1,3-dihydro-1-hydroxy-2,1-benzoxaborolane] |  |  |  |  |  | 16 µg/mL (≈ 101 µM) | 16 µg/mL (≈ 101 µM) | 8 µg/mL (≈ 50.3 µM) | 8 µg/mL (≈ 50.3 µM) | 8 µg/mL (≈ 50.3 µM) |  |
| OB1OCc2cc(F)c(F)cc21 [19k, 5,6-Difluoro-1,3-dihydro-1-hydroxy-2,1-benzoxaborolane] |  |  |  |  |  | 2 µg/mL (≈ 11.8 µM) | 4 µg/mL (≈ 23.5 µM) | 4 µg/mL (≈ 23.5 µM) | 2 µg/mL (≈ 11.8 µM) | 4 µg/mL (≈ 23.5 µM) |  |

Now from value to molecule, other results behind:

| MIC (Cryptococcus neoformans; Table 3, 1-hydroxy series (19)) | MIC (Candida albicans; Table 3, 1-hydroxy series (19)) | MIC (Trichophyton rubrum; Table 3, 1-hydroxy series (19)) | MIC (Aspergillus fumigatus; Table 3, 1-hydroxy series (19)) | MIC ([1]; Table 3, 1-hydroxy series (19)) | Molecule | Minimum inhibitory concentration, C. neoformans (Cryptococcus neoformans; Table 3, 1-hydroxy series (19)) | Minimum inhibitory concentration, C. albicans (Candida albicans; Table 3, 1-hydroxy series (19)) | Minimum inhibitory concentration, T. rubrum (Trichophyton rubrum; Table 3, 1-hydroxy series (19)) | Minimum inhibitory concentration, A. fumigatus (Aspergillus fumigatus; Table 3, 1-hydroxy series (19)) | Minimum inhibitory concentration, T. mentagrophytes ([1]; Table 3, 1-hydroxy series (19)) | also measured |
| --- | --- | --- | --- | --- | --- | --- | --- | --- | --- | --- | --- |
| 2 µg/mL (≈ 11.9 µM) | 1 µg/mL (≈ 5.94 µM) | 1 µg/mL (≈ 5.94 µM) | 1 µg/mL (≈ 5.94 µM) | 2 µg/mL (≈ 11.9 µM) | OB1OCc2cc(Cl)ccc21 [19d, 5-Chloro-1,3-dihydro-1-hydroxy-2,1-benzoxaborole] |  |  |  |  |  |  |
| 8 µg/mL (≈ 54.1 µM) | 2 µg/mL (≈ 13.5 µM) | 8 µg/mL (≈ 54.1 µM) | 2 µg/mL (≈ 13.5 µM) | 4 µg/mL (≈ 27 µM) | Cc1ccc2c(c1)COB2O [19e, 1,3-Dihydro-1-hydroxy-5-methyl-2,1-benzoxaborole] |  |  |  |  |  |  |
| > 64 µg/mL | > 64 µg/mL | 64 µg/mL (≈ 390 µM) | > 64 µg/mL | 32 µg/mL (≈ 195 µM) | OCc1ccc2c(c1)COB2O [19h, 1,3-Dihydro-1-hydroxy-5-hydroxymethyl-2,1-benzoxaborole] |  |  |  |  |  |  |
| 32 µg/mL (≈ 211 µM) | 64 µg/mL (≈ 421 µM) | 16 µg/mL (≈ 105 µM) | 32 µg/mL (≈ 211 µM) | 16 µg/mL (≈ 105 µM) | OB1OCc2c(F)cccc21 [19l, 1,3-Dihydro-4-fluoro-1-hydroxy-2,1-benzoxaborole] |  |  |  |  |  |  |
| 32 µg/mL (≈ 211 µM) | 16 µg/mL (≈ 105 µM) | 16 µg/mL (≈ 105 µM) | 8 µg/mL (≈ 52.7 µM) | 32 µg/mL (≈ 211 µM) | OB1OCc2ccc(F)cc21 [19m, 1,3-Dihydro-6-fluoro-1-hydroxy-2,1-benzoxaborole] |  |  |  |  |  |  |
| 32 µg/mL (≈ 211 µM) | 32 µg/mL (≈ 211 µM) | 16 µg/mL (≈ 105 µM) | 4 µg/mL (≈ 26.3 µM) | 16 µg/mL (≈ 105 µM) | OB1OCc2cccc(F)c21 [19n, 1,3-Dihydro-7-fluoro-1-hydroxy-2,1-benzoxaborolane] |  |  |  |  |  |  |

Reference: patent US8106031B2, “Hydrolytically-resistant boron-containing therapeutics and methods of use” (Anacor Pharmaceuticals, Inc., priority 2006, dated 2012)
